Measured values taken from patent US10570129B2 (Zoetis Services LLC, priority 2015, dated 2020).

What was measured:
Haemonchus contortus L3 = assay: microbe, parasite or virus in culture; type: cell-based; settings: Haemonchus contortus, 96 h, read-out: HcL3 Minimal Effective Concentration (MEC)
D. immitis microfilariae = assay: Dirofilaria immitis, microfilariae (DiMF) in vitro motility assay; type: cell-based; settings: Dirofilaria immitis, 72 h, read-out: DiMF minimally effective dose (MEC)

| Compound | minimal effective concentration (Haemonchus contortus L3) | minimal effective concentration (D. immitis microfilariae) |
| --- | --- | --- |
| N#Cc1ccc2c3c(n(C(=O)NCc4ccnc(Cl)c4)c2c1)CCN(C/C=C/c1ccc(F)c(F)c1)C3 [Example 28, (E)-N-((2-chloropyridin-4-yl)methyl)-7-cyano-2-(3-(3,4-difluorophenyl)allyl)-1,2,3,4-tetrahydro-5H-pyrido[4,3-b]indole-5-carboxamide] | 1.8 µM | 4.4 µM |
| N#Cc1ccc2c3c(n(C(=O)NCc4ccnc(Cl)c4)c2c1)CCN(C/C=C/c1cccc(Cl)c1F)C3 [Example 31, (E)-2-(3-(3-chloro-2-fluorophenyl)allyl)-N-((2-chloropyridin-4-yl)methyl)-7-cyano-1,2,3,4-tetrahydro-5H-pyrido[4,3-b]indole-5-carboxamide] | 1 µM | > 100 µM |
| N#Cc1ccc(/C=C/CN2CCc3c(c4ccc(C#N)cc4n3C(=O)NCc3ccnc(Cl)c3)C2)cc1 [Example 33, (E)-N-((2-chloropyridin-4-yl)methyl)-7-cyano-2-(3-(4-cyanophenyl)allyl)-1,2,3,4-tetrahydro-5H-pyrido[4,3-b]indole-5-carboxamide] | 3.3 µM | > 100 µM |
| N#Cc1ccc2c3c(n(C(=O)NCc4ccnc(Cl)c4)c2c1)CCN(C/C=C/c1ccc(Cl)cc1)C3 [Example 34, (E)-2-(3-(4-chlorophenyl)allyl)-N-((2-chloropyridin-4-yl)methyl)-7-cyano-1,2,3,4-tetrahydro-5H-pyrido[4,3-b]indole-5-carboxamide] | 3.3 µM | 3.3 µM |
| N#Cc1ccc2c3c(n(C(=O)NCc4ccnc(Cl)c4)c2c1)CCN(C/C=C/c1ccncc1)C3 [Example 37, (E)-N-((2-chloropyridin-4-yl)methyl)-7-cyano-2-(3-(pyridin-4-yl)allyl)-1,2,3,4-tetrahydro-5H-pyrido[4,3-b]indole-5-carboxamide] | > 100 µM | 33 µM |
| N#Cc1ccc2c3c(n(C(=O)NCc4ccnc(F)c4)c2c1)CCN(C/C=C/c1cc(F)c(Cl)c(F)c1)C3 [Example 50, (E)-2-(3-(4-chloro-3,5-difluorophenyl)allyl)-7-cyano-N-((2-fluoropyridin-4-yl)methyl)-1,2,3,4-tetrahydro-5H-pyrido[4,3-b]indole-5-carboxamide] | 1.8 µM | 10 µM |
| N#Cc1ccc2c3c(n(C(=O)NCc4ccnc(F)c4)c2c1)CCN(C/C=C/c1ccc(Cl)c(F)c1)C3 [Example 51, (E)-2-(3-(4-chloro-3-fluorophenyl)allyl)-7-cyano-N-((2-fluoropyridin-4-yl)methyl)-1,2,3,4-tetrahydro-5H-pyrido[4,3-b]indole-5-carboxamide] | 3.3 µM | 5.7 µM |
| N#Cc1ccc2c3c(n(C(=O)NCc4ccnc(F)c4)c2c1)CCN(C/C=C/c1ccc(Cl)cc1F)C3 [Example 52, (E)-2-(3-(4-chloro-2-fluorophenyl)allyl)-7-cyano-N-((2-fluoropyridin-4-yl)methyl)-1,2,3,4-tetrahydro-5H-pyrido[4,3-b]indole-5-carboxamide] | 5.7 µM | 10 µM |
| N#Cc1ccc2c3c(n(C(=O)NCc4ccnc(F)c4)c2c1)CCN(C/C=C/c1ccc(Cl)c(F)c1F)C3 [Example 53, (E)-2-(3-(4-chloro-2,3-difluorophenyl)allyl)-7-cyano-N-((2-fluoropyridin-4-yl)methyl)-1,2,3,4-tetrahydro-5H-pyrido[4,3-b]indole-5-carboxamide] | 5.7 µM | > 100 µM |
| N#Cc1ccc2c3c(n(C(=O)NCc4ccnc(F)c4)c2c1)CCN(C/C=C/c1cc(F)cc(OC(F)(F)F)c1)C3 [Example 54, (E)-7-cyano-2-(3-(3-fluoro-5-(trifluoromethoxy)phenyl)allyl)-N-((2-fluoro-pyridin-4-yl)methyl)-1,2,3,4-tetrahydro-5H-pyrido[4,3-b]indole-5-carboxamide] | > 100 µM | 10 µM |
| N#Cc1ccc2c3c(n(C(=O)NCc4ccnc(F)c4)c2c1)CCN(C/C=C/c1ccc(Cl)cc1)C3 [Example 55, (E)-2-(3-(4-chlorophenyl)allyl)-7-cyano-N-((2-fluoropyridin-4-yl)methyl)-1,2,3,4-tetrahydro-5H-pyrido[4,3-b]indole-5-carboxamide] | > 100 µM | 10 µM |
| COc1cc(CNC(=O)n2c3c(c4ccc(C#N)cc42)CN(C/C=C/c2ccc(Cl)c(F)c2)CC3)ccn1 [Example 59, (E)-2-(3-(4-chloro-3-fluorophenyl)allyl)-7-cyano-N-((2-methoxypyridin-4-yl)methyl)-1,2,3,4-tetrahydro-5H-pyrido[4,3-b]indole-5-carboxamide] | 7.7 µM | 10 µM |
| N#Cc1ccc2c3c(n(C(=O)NCc4ccnc(C(F)(F)F)c4)c2c1)CCN(C/C=C/c1ccc(Cl)c(F)c1)C3 [Example 60, (E)-2-(3-(4-chloro-3-fluorophenyl)allyl)-7-cyano-N-((2-(trifluoromethyl)pyridin-4-yl)methyl)-1,2,3,4-tetrahydro-5H-pyrido[4,3-b]indole-5-carboxamide] | 4.4 µM | 13.5 µM |
| COc1cc(CNC(=O)n2c3c(c4cc(C#N)ccc42)CN(C/C=C/c2ccc(Cl)c(F)c2)CC3)ccn1 [Example 64, (E)-2-(3-(4-chloro-3-fluorophenyl)allyl)-8-cyano-N-((2-methoxypyridin-4-yl)methyl)-1,2,3,4-tetrahydro-5H-pyrido[4,3-b]indole-5-carboxamide] | 0.5 µM | 3.3 µM |
| COc1cc(CNC(=O)n2c3c(c4cc(C#N)ccc42)CN(C/C=C/c2ccc(F)c(Cl)c2)CC3)ccn1 [Example 68, (E)-2-(3-(3-chloro-4-fluorophenyl)allyl)-8-cyano-N-((2-methoxypyridin-4-yl)methyl)-1,2,3,4-tetrahydro-5H-pyrido[4,3-b]indole-5-carboxamide] | 0.01 µM | 0.03 µM |
| COc1cc(CNC(=O)n2c3c(c4cc(C#N)ccc42)CN(C/C=C/c2ccc(Cl)c(Cl)c2)CC3)ccn1 [Example 69, (E)-8-cyano-2-(3-(3,4-dichlorophenyl)allyl)-N-((2-methoxypyridin-4-yl)methyl)-1,2,3,4-tetrahydro-5H-pyrido[4,3-b]indole-5-carboxamide] | 0.02 µM | 0.03 µM |
| N#Cc1ccc2c(c1)c1c(n2C(=O)NCc2ccnc(Cl)c2)CCN(C/C=C/c2cc(F)c(Cl)c(F)c2)C1 [Example 71, (E)-2-(3-(4-chloro-3,5-difluorophenyl)allyl)-N-((2-chloropyridin-4-yl)methyl)-8-cyano-1,2,3,4-tetrahydro-5H-pyrido[4,3-b]indole-5-carboxamide] | 0.2 µM | > 100 µM |
| N#Cc1ccc2c(c1)c1c(n2C(=O)NCc2ccnc(Cl)c2)CCN(C/C=C/c2ccc(Cl)c(F)c2)C1 [Example 72, (E)-2-(3-(4-chloro-3-fluorophenyl)allyl)-N-((2-chloropyridin-4-yl)methyl)-8-cyano-1,2,3,4-tetrahydro-5H-pyrido[4,3-b]indole-5-carboxamide] | 0.2 µM | 5.1 µM |
